One data set relates to A549. Put plainly: Cytotoxicity against human A549 cells assessed as inhibition of cell growth measured after 48 hrs by Hoechst 33258 staining based fluorescence assay. The data set is classed as functional. The settings on record: A549, 48 h.
Data set [1] in a line: Cytotoxicity against human WS1 cells assessed as inhibition of cell growth measured after 48 hrs by Hoechst 33258 staining based fluorescence assay. The data set is classed as toxicity.
Another data set relates to DLD-1. Put plainly: Cytotoxicity against human DLD-1 cells assessed as inhibition of cell growth measured after 48 hrs by Hoechst 33258 staining based fluorescence assay. The data set is classed as functional. The settings on record: DLD-1, 48 h.

Consider 24 compounds from ChEMBL document CHEMBL5550145, “Synthesis and cytotoxicity evaluation of d- and l-sugar-containing mono- and bidesmosidic ursane-type saponins” (Bioorg Med Chem, 2024).

pIC50: −log10 of the molar value.

With `C=C(C)[C@@H]1CC[C@]2(CO[C@@H]3O[C@@H](C)[C@H](O)[C@@H](O)[C@H]3O)CC[C@]3(C)[C@H](CC[C@@H]4[C@@]5(C)CC[C@H](O[C@@H]6O[C@@H](C)[C@H](O)[C@@H](O)[C@H]6O)C(C)(C)[C@@H]5CC[C@]43C)[C@@H]12`, the pIC50 (usually the negative decadic logarithm of the IC50, by convention in mol/L) with A549 is 5.97. Moreover, the concentration for half-maximal inhibition (IC50) (as a rule, the concentration that gives 50% inhibition) at 48 h in data set [1] worked out at 1.42 µM.

For the compound `C[C@H]1[C@H](C)CC[C@]2(CO[C@H]3OC[C@H](O)[C@H](O)[C@H]3O)CC[C@]3(C)C(=CC[C@@H]4[C@@]5(C)CC[C@H](O[C@@H]6OC[C@H](O)[C@H](O)[C@H]6O)C(C)(C)[C@@H]5CC[C@]43C)[C@H]12`, the negative logarithm of the IC50 (pIC50) was 5.05 in the data set on A549 and 4.51 in the data set on DLD-1. For the same compound, in data set [1], the half-maximal inhibitory concentration (IC50) at 48 h amounted to 37 µM.

On to `C[C@H]1[C@H](C)CC[C@]2(C(=O)O)CC[C@]3(C)C(=CC[C@@H]4[C@@]5(C)CC[C@H](O[C@@H]6OC[C@H](O)[C@@H](O)[C@H]6O)C(C)(C)[C@@H]5CC[C@]43C)[C@H]12`, for which the figures for the pIC50 with A549 and with DLD-1 were 4.41 and 4.54, respectively. Besides, the IC50 at 48 h in data set [1] came out at 20 µM.

Turning to `C[C@H]1[C@H](C)CC[C@]2(C(=O)O)CC[C@]3(C)C(=CC[C@@H]4[C@@]5(C)CC[C@H](O[C@@H]6O[C@H](C)[C@H](O)[C@H](O)[C@H]6O)C(C)(C)[C@@H]5CC[C@]43C)[C@H]12`, the pIC50 is 5.15 in the data set with A549 and 4.82 in the data set on DLD-1. The IC50 at 48 h in data set [1] was 13.1 µM.

Turning to `C[C@H]1[C@H](C)CC[C@]2(CO[C@@H]3O[C@H](C)[C@H](O)[C@H](O)[C@H]3O)CC[C@]3(C)C(=CC[C@@H]4[C@@]5(C)CC[C@H](O[C@@H]6O[C@H](C)[C@H](O)[C@H](O)[C@H]6O)C(C)(C)[C@@H]5CC[C@]43C)[C@H]12`, the pIC50 in the data set with A549 is 5.05; with DLD-1, 4.92. For the same compound, the half-inhibitory concentration (IC50) at 48 h in data set [1] was 16 µM.

`C[C@H]1[C@H](C)CC[C@]2(C(=O)O)CC[C@]3(C)C(=CC[C@@H]4[C@@]5(C)CC[C@H](O[C@H]6O[C@H](C)[C@@H](O)[C@H](O)[C@@H]6O)C(C)(C)[C@@H]5CC[C@]43C)[C@H]12`: the negative-log IC50 (pIC50) was 4.19 in the data set with A549 and 4.21 in the data set on DLD-1. For the same compound, in data set [1], the IC50 at 48 h was 77 µM.

With `C[C@H]1[C@H](C)CC[C@]2(CO[C@H]3O[C@@H](C)[C@@H](O)[C@@H](O)[C@@H]3O)CC[C@]3(C)C(=CC[C@@H]4[C@@]5(C)CC[C@H](O[C@H]6O[C@@H](C)[C@@H](O)[C@@H](O)[C@@H]6O)C(C)(C)[C@@H]5CC[C@]43C)[C@H]12`, the negative logarithm of the IC50 (pIC50) with A549 was 3.98; in the data set on DLD-1 it was 4.32. Also, the IC50 at 48 h in data set [1] was 62 µM.

Consider `C[C@H]1[C@H](C)CC[C@]2(C(=O)O)CC[C@]3(C)C(=CC[C@@H]4[C@@]5(C)CC[C@H](O[C@H]6O[C@@H](C)[C@@H](O)[C@@H](O)[C@@H]6O)C(C)(C)[C@@H]5CC[C@]43C)[C@H]12`, for which the figures for the negative-log IC50 (pIC50) in the data set with A549 and in the data set with DLD-1 were 5.43 and 4.82, respectively. The concentration for half-maximal inhibition (IC50) at 48 h in data set [1] turned out to be 7.2 µM.

Turning to `C[C@H]1[C@H](C)CC[C@]2(C(=O)O)CC[C@]3(C)C(=CC[C@@H]4[C@@]5(C)CC[C@H](O[C@H]6OC[C@@H](O)[C@@H](O)[C@@H]6O)C(C)(C)[C@@H]5CC[C@]43C)[C@H]12`, the figures for the pIC50 in the data set with A549 and in the data set on DLD-1 were 5.05 and 5.10, respectively. In addition, the IC50 at 48 h in data set [1] was 10 µM.

`C[C@H]1[C@H](C)CC[C@]2(C(=O)O)CC[C@]3(C)C(=CC[C@@H]4[C@@]5(C)CC[C@H](O[C@@H]6OC[C@@H](O)[C@H](O)[C@H]6O)C(C)(C)[C@@H]5CC[C@]43C)[C@H]12`: the values for the pIC50 in the data set with A549 and in the data set with DLD-1 were 5.13 and 5.15, respectively. Also, in data set [1], the IC50 at 48 h was determined as 9 µM.

As for `C[C@H]1[C@H](C)CC[C@]2(CO[C@@H]3O[C@@H](C)[C@H](O)[C@@H](O)[C@H]3O)CC[C@]3(C)C(=CC[C@@H]4[C@@]5(C)CC[C@H](O[C@@H]6O[C@@H](C)[C@H](O)[C@@H](O)[C@H]6O)C(C)(C)[C@@H]5CC[C@]43C)[C@H]12`, the pIC50 is 5.35 in the data set with A549 and 4.96 with DLD-1. The half-maximal inhibitory concentration (IC50) at 48 h in data set [1] is 14 µM.

On to `C[C@H]1[C@H](C)CC[C@]2(CO[C@H]3O[C@H](C)[C@@H](O)[C@H](O)[C@@H]3O)CC[C@]3(C)C(=CC[C@@H]4[C@@]5(C)CC[C@H](O[C@H]6O[C@H](C)[C@@H](O)[C@H](O)[C@@H]6O)C(C)(C)[C@@H]5CC[C@]43C)[C@H]12`, for which the pIC50 is 3.98 in the data set with A549 and 3.96 with DLD-1. Besides, the half-inhibitory concentration (IC50) at 48 h in data set [1] was greater than 200 µM.

Regarding `C[C@H]1[C@H](C)CC[C@]2(C(=O)O)CC[C@]3(C)C(=CC[C@@H]4[C@@]5(C)CC[C@H](O[C@H]6OC[C@H](O)[C@@H](O)[C@@H]6O)C(C)(C)[C@@H]5CC[C@]43C)[C@H]12`, the negative-log IC50 (pIC50) in the data set on A549 was 4.46; in the data set with DLD-1, 4.44. Moreover, the IC50 at 48 h in data set [1] was determined as 30 µM.

Turning to `C[C@H]1[C@H](C)CC[C@]2(C(=O)O)CC[C@]3(C)C(=CC[C@@H]4[C@@]5(C)CC[C@H](O[C@@H]6O[C@@H](C)[C@H](O)[C@@H](O)[C@H]6O)C(C)(C)[C@@H]5CC[C@]43C)[C@H]12`, the figures for the pIC50 in the data set on A549 and in the data set with DLD-1 were 4.85 and 4.96, respectively. Also, the half-maximal inhibitory concentration (IC50) at 48 h in data set [1] was 8.5 µM.

Regarding `C[C@H]1[C@H](C)CC[C@]2(C(=O)O)CC[C@]3(C)C(=CC[C@@H]4[C@@]5(C)CC[C@H](O[C@@H]6OC[C@H](O)[C@H](O)[C@H]6O)C(C)(C)[C@@H]5CC[C@]43C)[C@H]12`, the values for the pIC50 in the data set on A549 and with DLD-1 were 5.46 and 5.42, respectively. Besides, the half-inhibitory concentration (IC50) at 48 h in data set [1] is 5.9 µM.

For the compound `C[C@H]1[C@H](C)CC[C@]2(CO[C@@H]3OC[C@@H](O)[C@@H](O)[C@@H]3O)CC[C@]3(C)C(=CC[C@@H]4[C@@]5(C)CC[C@H](O[C@H]6OC[C@@H](O)[C@@H](O)[C@@H]6O)C(C)(C)[C@@H]5CC[C@]43C)[C@H]12`, the results for the negative-log IC50 (pIC50) in the data set on A549 and in the data set with DLD-1 were 5.00 and 4.80, respectively. Besides, the half-inhibitory concentration (IC50) at 48 h in data set [1] was 20 µM.

As for `C[C@H]1[C@H](C)CC[C@]2(C(=O)O)CC[C@]3(C)C(=CC[C@@H]4[C@@]5(C)CC[C@H](O[C@H]6OC[C@@H](O)[C@H](O)[C@@H]6O)C(C)(C)[C@@H]5CC[C@]43C)[C@H]12`, the pIC50 was 5.05 in the data set on A549 and 5.19 with DLD-1. Besides, in data set [1], the IC50 at 48 h came out at 4.6 µM.

As to `C[C@H]1[C@H](C)CC[C@]2(CO[C@H]3OC[C@@H](O)[C@H](O)[C@H]3O)CC[C@]3(C)C(=CC[C@@H]4[C@@]5(C)CC[C@H](O[C@@H]6OC[C@@H](O)[C@H](O)[C@H]6O)C(C)(C)[C@@H]5CC[C@]43C)[C@H]12`, the negative-log IC50 (pIC50) in the data set with A549 is 4.82; with DLD-1 it was 4.83. Besides, the 50% inhibitory concentration (IC50) at 48 h in data set [1] came out at 20 µM.

On to `C[C@H]1[C@H](C)CC[C@]2(CO[C@H]3OC[C@H](O)[C@@H](O)[C@H]3O)CC[C@]3(C)C(=CC[C@@H]4[C@@]5(C)CC[C@H](O[C@@H]6OC[C@H](O)[C@@H](O)[C@H]6O)C(C)(C)[C@@H]5CC[C@]43C)[C@H]12`, for which the pIC50 was 4.82 in the data set on A549 and 4.24 in the data set with DLD-1. The IC50 at 48 h in data set [1] was 60 µM.

As to `C[C@H]1[C@H](C)CC[C@]2(CO[C@@H]3OC[C@H](O)[C@@H](O)[C@@H]3O)CC[C@]3(C)C(=CC[C@@H]4[C@@]5(C)CC[C@H](O[C@H]6OC[C@H](O)[C@@H](O)[C@@H]6O)C(C)(C)[C@@H]5CC[C@]43C)[C@H]12`, the values for the negative-log IC50 (pIC50) with A549 and with DLD-1 were 5.01 and less than 3.70, respectively. Besides, in data set [1], the IC50 at 48 h is greater than 200 µM.

For `C[C@H]1[C@H](C)CC[C@]2(CO[C@@H]3OC[C@@H](O)[C@H](O)[C@@H]3O)CC[C@]3(C)C(=CC[C@@H]4[C@@]5(C)CC[C@H](O[C@H]6OC[C@@H](O)[C@H](O)[C@@H]6O)C(C)(C)[C@@H]5CC[C@]43C)[C@H]12`, the pIC50 with A549 is 4.47; with DLD-1 it was 4.42. Besides, the IC50 at 48 h in data set [1] worked out at 10 µM.

With `COc1cc([C@@H]2c3cc4c(cc3[C@@H](O[C@@H]3O[C@@H]5CO[C@@H](C)O[C@H]5[C@H](O)[C@H]3O)[C@H]3COC(=O)[C@H]23)OCO4)cc(OC)c1O` [ETOPOSIDE], the figures for the negative logarithm of the IC50 (pIC50) in the data set with A549 and in the data set on DLD-1 were 5.72 and 5.29, respectively. In addition, the 50% inhibitory concentration (IC50) at 48 h in data set [1] is greater than 50 µM.

For the compound `C[C@H]1[C@H](C)CC[C@]2(C(=O)O)CC[C@]3(C)C(=CC[C@@H]4[C@@]5(C)CC[C@H](O)C(C)(C)[C@@H]5CC[C@]43C)[C@H]12` [URSOLIC ACID], the negative logarithm of the IC50 (pIC50) with A549 and with DLD-1 was 4.80 in each case. In data set [1], the IC50 at 48 h was found to be 13.1 µM.

Turning to `C[C@H]1[C@H](C)CC[C@]2(CO)CC[C@]3(C)C(=CC[C@@H]4[C@@]5(C)CC[C@H](O)C(C)(C)[C@@H]5CC[C@]43C)[C@H]12` [UVAOL], the pIC50 in the data set with A549 and in the data set on DLD-1 was less than 3.70 in each case. Also, the half-inhibitory concentration (IC50) at 48 h in data set [1] was greater than 200 µM.
